Results published in US9393221B2, “Methods and compounds for reducing intracellular lipid storage” (THE GENERAL HOSPITAL CORPORATION, priority 2011, dated 2016).
Counter-ions that a name gives are not always drawn. Square brackets hold non-standard residues; d marks the D form. Peptide text beside a SMILES is read from it. * marks the point of attachment. Sta = CC(C)C[C@H](N)[C@@H](O)CC(=O)O; Isovaleryl = CC(C)CC(=O)*
Throughout, for Z-score: test concentration or dose not given here.

The molecules below were run on ATGL-KO iPSCs (assay: High throughput iPSC chemical screening, Oil Red O (ORO) lipid accumulation). Conditions: not given.
Type: cell-based, mouse
CC(N)C(O)c1ccccc1 (stereo not drawn) [Phenylpropanolamine hydrochloride] gave a Z-score of 0.2625. Molecule C[n+]1ccccc1/C=N/O [Pralidoxime chloride] has a Z-score of 1.281.

Same assay, conditions: glycolytic switch compounds
In the case of [H]/N=C(/N)N/C(=N/[H])NCCc1ccccc1 [Phenformin hydrochloride], the “Rank in normalized ORO score from screen” value was 524. With CC(COc1ccccc1)N(CCCl)Cc1ccccc1 (stereo not drawn) [Phenoxybenzamine hydrochloride] the “Rank in normalized ORO score from screen” value was 702. O=c1[nH]c2ccccc2n1C1CCN(CCCC(c2ccc(F)cc2)c2ccc(F)cc2)CC1 [Pimozide] was tested, and the “Rank in normalized ORO score from screen” value was 330. For CCN1CCCC(OC(=O)C(c2ccccc2)c2ccccc2)C1 (stereo not drawn) [Piperidolate hydrochloride], the “Rank in normalized ORO score from screen” value was 449. With CC(=O)[C@H]1CC[C@H]2[C@@H]3CC=C4C[C@@H](O)CC[C@]4(C)[C@H]3CC[C@]12C [Pregnenolone] the “Rank in normalized ORO score from screen” value was 924.

Same assay, conditions: normalized ORO level vs DMSO-treated cells; compound present during 7 days differentiation, 96-well; negative = decrease in lipid accumulation
CC(=O)O[C@H]1C(=O)[C@@]2(C)[C@H]([C@H](OC(=O)c3ccccc3)[C@]3(O)C[C@H](OC(=O)[C@H](O)[C@@H](NC(=O)c4ccccc4)c4ccccc4)C(C)=C1C3(C)C)[C@]1(OC(C)=O)CO[C@@H]1C[C@@H]2O [Paclitaxel] gave a Z-score of 48.9183. COc1cc2c(cc1OC)-c1cc3ccc(OC)c(OC)c3c[n+]1CC2 [Palmatine chloride] gave a Z-score of 6.905. With CC(=O)O[C@H]1C[C@@H]2CC[C@@H]3[C@H](CC[C@@]4(C)[C@H]3C[C@H]([N+]3(C)CCCCC3)[C@@H]4OC(C)=O)[C@@]2(C)C[C@@H]1[N+]1(C)CCCCC1 [Pancuronium bromide] the Z-score was 0.2708. In the case of CC(C)(CO)[C@@H](O)C(=O)NCCCO [Panthenol (D)], the Z-score was −0.069. CC(C)(CO)[C@@H](O)C(=O)NCCC(=O)O [Pantothenic acid calcium salt monohydrate] showed a Z-score of −1.5008. Work on COc1ccc(Cc2nccc3cc(OC)c(OC)cc23)cc1OC [Papaverine hydrochloride] yielded a Z-score of 9.542. CCCCc1ccc2[nH]c(NC(=O)OC)nc2c1 [Parbendazole] gave a Z-score of 39.1106. C#CCN(C)Cc1ccccc1 [Pargyline hydrochloride] showed a Z-score of −0.735. For NC[C@@H]1O[C@H](O[C@H]2[C@@H](O)[C@H](O[C@@H]3[C@@H](O)[C@H](N)C[C@H](N)[C@H]3O[C@H]3O[C@H](CO)[C@@H](O)[C@H](O)[C@H]3N)O[C@@H]2CO)[C@H](N)[C@@H](O)[C@@H]1O [Paromomycin sulfate], the Z-score was −0.0138. With Fc1ccc([C@@H]2CCNC[C@H]2COc2ccc3c(c2)OCO3)cc1 [Paroxetine Hydrochloride] the Z-score was −0.9182. For CN1C(C)(C)CCCC1(C)C [Pempidine tartrate], the Z-score was −0.8069. Molecule CC(C)(C)NC[C@H](O)COc1ccccc1C1CCCC1 [Penbutolol sulfate] has a Z-score of −0.627. Work on N=C(N)c1ccc(OCCCCCOc2ccc(C(=N)N)cc2)cc1 [Pentamidine isethionate] yielded a Z-score of 14.9126. O=C(O)CN(CCN(CC(=O)O)CC(=O)O)CCN(CC(=O)O)CC(=O)O [Pentetic acid] showed a Z-score of 0.9077. C[N+]1(CCCCC[N+]2(C)CCCC2)CCCC1.O=C([O-])C(O)C(O)C(=O)O.O=C([O-])C(O)C(O)C(=O)O [Pentolinium bitartrate] gave a Z-score of −0.9629. CC(=O)CCCCn1c(=O)c2c(ncn2C)n(C)c1=O [Pentoxifylline] gave a Z-score of −1.1547. C1CCc2nnnn2CC1 [Pentylenetetrazole] showed a Z-score of 0.6653. With CC(C)CC(=O)N[C@H](C(=O)N[C@H](C(=O)N[C@@H](CC(C)C)[C@@H](O)CC(=O)N[C@@H](C)C(=O)N[C@@H](CC(C)C)[C@@H](O)CC(=O)O)C(C)C)C(C)C [Pepstatin A] (Isovaleryl-VV[Sta]A[Sta]-OH) the Z-score was 1.261. Work on CCCN1C[C@H](CSC)C[C@@H]2c3cccc4[nH]cc(c34)C[C@H]21 [Pergolide mesylate] yielded a Z-score of −0.3289. Molecule OCCN1CCN(CCCN2c3ccccc3Sc3ccc(Cl)cc32)CC1 [Perphenazine] has a Z-score of −1.5218. Molecule CCOc1ccc(NC(C)=O)cc1 [Phenacetin] has a Z-score of 0.5. Molecule Nc1ccc(/N=N/c2ccccc2)c(N)n1 [Phenazopyridine hydrochloride] has a Z-score of −0.2483. For NNCCc1ccccc1 [Phenelzine sulfate], the Z-score was 0.6672. CC(Oc1ccccc1)C(=O)N[C@@H]1C(=O)N2[C@@H]1SC(C)(C)[C@@H]2C(=O)O (stereo partly drawn) [Phenethicillin potassium salt] showed a Z-score of −0.0851. Molecule [H]/N=C(/N)N/C(=N/[H])NCCc1ccccc1 [Phenformin hydrochloride] has a Z-score of −0.2777. O=C1c2ccccc2C(=O)C1c1ccccc1 [Phenindione] showed a Z-score of 0.2654. With CN(C)CCC(c1ccccc1)c1ccccn1 (stereo not drawn) [Pheniramine maleate] the Z-score was 0.3153. For CC(COc1ccccc1)N(CCCl)Cc1ccccc1 (stereo not drawn) [Phenoxybenzamine hydrochloride], the Z-score was 0.2031. Work on CN1C(=O)CC(c2ccccc2)C1=O (stereo not drawn) [Phensuximide] yielded a Z-score of 0.02844. Cc1ccc(N(CC2=NCCN2)c2cccc(O)c2)cc1 [Phentolamine hydrochloride] gave a Z-score of 0.3245. Work on O=C(O)c1ccccc1C(=O)Nc1ccc(S(=O)(=O)Nc2nccs2)cc1 [Phthalylsulfathiazole] yielded a Z-score of −1.0074. COc1ccc(C(=O)NCc2cccnc2)cc1C(=O)NCc1cccnc1 [Picotamide monohydrate] was tested, and the Z-score was −1.2123. C=C(C)[C@@H]1[C@H]2OC(=O)[C@@H]1[C@]1(O)C[C@H]3O[C@]34C(=O)O[C@H]2[C@]14C [Picrotoxinin] gave a Z-score of −0.1703. CC[C@@H]1C(=O)OC[C@@H]1Cc1cncn1C [Pilocarpine nitrate] gave a Z-score of −0.2819. Molecule CN1CCC(=C2c3ccccc3Sc3ccccc32)CC1 [Pimethixene maleate] has a Z-score of −0.4872. Molecule O=c1[nH]c2ccccc2n1C1CCN(CCCC(c2ccc(F)cc2)c2ccc(F)cc2)CC1 [Pimozide] has a Z-score of −0.7483. CC(N/C(=N\C#N)Nc1ccncc1)C(C)(C)C (stereo not drawn) [Pinacidil] gave a Z-score of 0.3162. For CC(C)NCC(O)COc1cccc2[nH]ccc12 (stereo not drawn) [Pindolol], the Z-score was 0.03656. For CCn1cc(C(=O)O)c(=O)c2cnc(N3CCNCC3)nc21 [Pipemidic acid], the Z-score was −1.4165. For CC[N+]1(C)CCCC(OC(=O)C(O)(c2ccccc2)c2ccccc2)C1 (stereo not drawn) [Pipenzolate bromide], the Z-score was −1.06. Work on CC(=O)c1ccc2c(c1)N(CCCN1CCC(CCO)CC1)c1ccccc1S2 [Piperacetazine] yielded a Z-score of −0.4798. For CCN1CCN(C(=O)N[C@@H](C(=O)N[C@@H]2C(=O)N3[C@@H]2SC(C)(C)[C@@H]3C(=O)O)c2ccccc2)C(=O)C1=O [Piperacillin sodium salt], the Z-score was −0.9149. CCN1CCCC(OC(=O)C(c2ccccc2)c2ccccc2)C1 (stereo not drawn) [Piperidolate hydrochloride] gave a Z-score of −0.4895. O=C(/C=C/C=C/c1ccc2c(c1)OCO2)N1CCCCC1 [Piperine] was tested, and the Z-score was 1.588. Work on COc1cc(/C=C/C(=O)N2CCC=CC2=O)cc(OC)c1OC [Piperlongumine] yielded a Z-score of 16.6479. NC(=O)CN1CCCC1=O [Piracetam] showed a Z-score of 0.8038. Work on CN1CCN(CC(=O)N2c3ccccc3C(=O)Nc3cccnc32)CC1 [Pirenzepine dihydrochloride] yielded a Z-score of −1.096. NS(=O)(=O)c1cc(C(=O)O)cc(N2CCCC2)c1Oc1ccccc1 [Piretanide] gave a Z-score of 0.2521. Work on c1cnc(N2CCN(Cc3ccc4c(c3)OCO4)CC2)nc1 [Piribedil hydrochloride] yielded a Z-score of −1.3522. CCn1cc(C(=O)O)c(=O)c2cnc(N3CCCC3)nc21 [Piromidic acid] was tested, and the Z-score was 0.2604. Molecule CN1C(C(=O)Nc2ccccn2)=C(O)c2ccccc2S1(=O)=O [Piroxicam] has a Z-score of 0.7254. Molecule CC(C)(C)C(=O)OCOC(=O)[C@@H]1N2C(=O)[C@@H](NC(=O)[C@H](N)c3ccccc3)[C@H]2SC1(C)C [Pivampicillin] has a Z-score of −1.1929. With CC(C)(C)C(=O)OCOC(=O)[C@@H]1N2C(=O)[C@@H](/N=C/N3CCCCCC3)[C@H]2SC1(C)C [Pivmecillinam hydrochloride] the Z-score was −0.219. With COc1cc([C@@H]2c3cc4c(cc3[C@H](O)[C@H]3COC(=O)[C@H]23)OCO4)cc(OC)c1OC [Podophyllotoxin] the Z-score was 46.4771. In the case of CC(=O)Nc1ccc(OCC(O)CNC(C)C)cc1 (stereo not drawn) [Practolol], the Z-score was −0.3373. CCCCOc1ccc(OCCCN2CCOCC2)cc1 [Pramoxine hydrochloride] showed a Z-score of 0.5195. With O=C(C1CCCCC1)N1CC(=O)N2CCc3ccccc3C2C1 (stereo not drawn) [Praziquantel] the Z-score was −0.5159. In the case of COc1cc2nc(N3CCN(C(=O)c4ccco4)CC3)nc(N)c2cc1OC [Prazosin hydrochloride], the Z-score was 0.6597. CCOC(=O)O[C@]1(C(=O)COC(=O)CC)CC[C@H]2[C@@H]3CCC4=CC(=O)C=C[C@]4(C)[C@H]3[C@@H](O)C[C@@]21C [Prednicarbate] showed a Z-score of −0.9408. C[C@]12C=CC(=O)C=C1CC[C@@H]1[C@@H]2[C@@H](O)C[C@@]2(C)[C@H]1CC[C@]2(O)C(=O)CO [Prednisolone] showed a Z-score of −0.8986. For C[C@]12C=CC(=O)C=C1CC[C@@H]1[C@@H]2C(=O)C[C@@]2(C)[C@H]1CC[C@]2(O)C(=O)CO [Prednisone], the Z-score was 0.05393. In the case of CC(=O)[C@H]1CC[C@H]2[C@@H]3CC=C4C[C@@H](O)CC[C@]4(C)[C@H]3CC[C@]12C [Pregnenolone], the Z-score was 1.076. CCCNC(C)C(=O)Nc1ccccc1C (stereo not drawn) [Prilocaine hydrochloride] gave a Z-score of −1.2624. In the case of COc1cc(NC(C)CCCN)c2ncccc2c1 (stereo not drawn) [Primaquine diphosphate], the Z-score was 5.51. In the case of CCC1(c2ccccc2)C(=O)NCNC1=O [Primidone], the Z-score was −0.0045. CCCC(C(=O)OCCN(CC)CC)(c1ccccc1)c1ccccc1 [Proadifen hydrochloride] was tested, and the Z-score was −1.1876. CCCN(CCC)S(=O)(=O)c1ccc(C(=O)O)cc1 [Probenecid] gave a Z-score of 0.754. CC(C)(Sc1cc(C(C)(C)C)c(O)c(C(C)(C)C)c1)Sc1cc(C(C)(C)C)c(O)c(C(C)(C)C)c1 [Probucol] showed a Z-score of 1.626. CCN(CC)CCNC(=O)c1ccc(N)cc1 [Procainamide hydrochloride] gave a Z-score of −0.2319. CCN(CC)CCOC(=O)c1ccc(N)cc1 [Procaine hydrochloride] gave a Z-score of −0.5215. CNNCc1ccc(C(=O)NC(C)C)cc1 [Procarbazine hydrochloride] was tested, and the Z-score was 1.675. Work on CN1CCN(CCCN2c3ccccc3Sc3ccc(Cl)cc32)CC1 [Prochlorperazine dimaleate] yielded a Z-score of 1.82. Molecule OC(CCN1CCCC1)(c1ccccc1)C1CCCCC1 (stereo not drawn) [Procyclidine hydrochloride] has a Z-score of −0.6071. CC(=O)[C@H]1CC[C@H]2[C@@H]3CCC4=CC(=O)CC[C@]4(C)[C@H]3CC[C@]12C [Progesterone] was tested, and the Z-score was 2.344.
